From patent US6143732A, “Sesquiterpene derivatives” (priority 1997, dated 2000)

Tested on: influenza A and B viruses
Assay: Inhibitory activity against virus (general statement)
Assay type: cell-based
Conditions: statement in words

## C[C@H]1CC[C@H]2C(C)(C)[C@@H](O)CC[C@]23Oc2c(c(O)cc4c2CNC4=O)C[C@]13C [SQ-02-S5, (6a R, 7S, 9a S, 11 S, 13a S)-2,3,6,6a,7,8,9,9a,10,11,12,13-dodecahydro-5, 11-dihydroxy-6a, 7,10,10-tetramethyl-3-oxo-1H-benzo[8,8a][1]benzopyrano[2,3-e]isoindole]
  inhibitory activity against virus: strong inhibitory activity against virus
